Results on 5 molecules are retold here after patent US12570956B2, “Efficient derivation of stable pluripotent bovine embryonic stem cells” (The Regents of the University of California, priority 2018, dated 2026).

“Also recorded” adds a separate entry of the source.

Assay [1] relates to bovine blastocyst. Particulars: added during in vitro pre-implantation development; cited from earlier work.
In assay [2] the test system is bovine embryonic stem cells. The experiment in a line: Immunostaining of pluripotency markers in bESCs grown with or without IWR1. The assay is classed as cell-based. Particulars: withdrawal of IWR1 from the culture media; four passages. The protocol: FIG. 3: Inhibition of the canonical Wnt-signaling pathway is a requirement for self-renewal of pluripotent CTFR-bESCs. Immunostaining of the core pluripotency markers POU5F1 and SOX2 in bovine embryonic stem cells grown in medium supplemented with or devoid of IWR1 (+IWR1 and −IWR1, respectively). Cells were grown for four passages in the two conditions before immunofluorescence analysis. Scale bar 100 μm.
Individual whole blastocysts or isolated ICMs were placed in separate wells of a 12-well dish seeded with a monolayer of gamma-irradiated mouse embryonic fibroblasts (MEF) and cultured in CTFR medium: a custom mTeSR-like basal medium (completely devoid of growth factors FGF2 and TGFβ) containing low fatty acid BSA (MP Biomedicals NZ), similar to basal medium in the published recipe(45) supplemented with 20 ng/ml human FGF2 and 2.5 μM IWR1 (CTFR), and incubated at 37° C. and 5% CO2.
Once established, CTFR-bESC lines were grown at 37° C. and 5% CO2 on wells containing MEF and passaged every 4-5 days at a 1:10 split ratio. To increase cell survival, optionally, ROCK inhibitor (Y-27632, 10 μM) was added to the wells 1 h prior to passage and was also added to the newly prepared wells containing MEF and fresh culture media medium during 24 hrs. Media change was done daily between passages. ROCK inhibitor is dispensable for routine maintenance and passaging of CTFR-bESCs. […]

Assay [3] relates to bovine blastocysts. The experiment in a line: Derivation of CTFR-bESC lines from plated blastocysts/ICMs. Particulars: IWR1 not present in the culture medium. The assay is classed as cell-based. On the procedure: CTFR-bESCs derivation efficiency was measured as the percentage of embryos successfully establishing a CTFR-bESC line at passage 3 over the total number of embryos seeded. To optimize the CTFR-bESCs derivation efficiency, Applicants evaluated three different plating methods: whole blastocyst, mechanical isolation of the ICM by microdissection, and isolation of the ICM by immunosurgery. […] The initial outgrowths from the three methods were slightly different. The immunosurgery-derived outgrowths were smaller and more homogeneous in cell morphology than those from the other two methods.
Individual whole blastocysts or isolated ICMs were placed in separate wells of a 12-well dish seeded with a monolayer of gamma-irradiated mouse embryonic fibroblasts (MEF) and cultured in CTFR medium: a custom mTeSR-like basal medium (completely devoid of growth factors FGF2 and TGFβ) containing low fatty acid BSA (MP Biomedicals NZ), similar to basal medium in the published recipe([…]), and incubated at 37° C. and 5% CO2.
Thereafter, the media was changed daily. Outgrowths (after 6-7 days in culture) were dissociated and passaged using TrypLE (Gibco, 12563011) and re-seeded in the presence of Rho Kinase (ROCK) inhibitor (Y-27632, 10 μM) onto newly prepared wells containing MEF and fresh medium (FIG. 1).

The test system of assay [4] is CTFR-bESCs. The assay is described as follows: Routine maintenance and passaging of CTFR-bESCs. The assay is classed as cell-based, bovine. Particulars: Y-27632, 10 μM. On the procedure:
Once established, CTFR-bESC lines were grown at 37° C. and 5% CO2 on wells containing MEF and passaged every 4-5 days at a 1:10 split ratio. To increase cell survival, optionally, ROCK inhibitor (Y-27632, 10 μM) was added to the wells 1 h prior to passage and was also added to the newly prepared wells containing MEF and fresh culture media medium during 24 hrs. Media change was done daily between passages. ROCK inhibitor is dispensable for routine maintenance and passaging of CTFR-bESCs.

The subject of assay [5] is CTFR-bESCs. The experiment in a line: Feeder-free culture of CTFR-bESCs on Matrigel or Vitronectin. The assay is classed as cell-based, bovine. Particulars: medium supplemented with Activin-A (10 ng/mL), four passages. On the procedure: FIG. 9. CTFR-bESCs can be cultured in feeder-free conditions. Brightfield images and immunostaining for pluripotency markers OCT4 and SOX2 of CTFR-bESCs cultured for four passages on mouse embryonic fibroblast (MEF) feeder (Control) or different extracellular matrices (Matrigel or Vitronectin) conditions, with or without the supplementation of Activin-A (10 ng/mL). Control: inactivated MEFs.
Culturing CTFR-bESCs in absence of feeder cells lead to cellular differentiation after a few passages.

The test system of assay [6] is bovine embryos. Particulars: in vitro treatment from day 5 to day 7 after fertilization; cited from earlier work.

`COc1cccc(-c2cc(NCc3ccc4c(c3)OCO4)nc(N)n2)c1` [AMBMP, 2-amino-4-(3,4-(methylenedioxy)benzylamino)-6-(3-methoxyphenyl)pyrimidine]: in assay [1], the bovine blastocyst development result is “detrimental effects” and the “total number of cells in the ICM” value is “reduces”. As for `O=C(Nc1cccc2cccnc12)c1ccc(N2C(=O)[C@@H]3[C@H](C2=O)[C@@H]2C=C[C@H]3C2)cc1` [IWR1], the “pluripotency marker expression (POU5F1, SOX2)” value in assay [2] is recorded as “loss of pluripotency marker expression”. In assay [3], the “establishment of bESC line” value is listed as “no bESC lines could be established”.

`C[C@@H](N)[C@H]1CC[C@H](C(=O)Nc2ccncc2)CC1` [Y-27632]: the “need for ROCK inhibitor in maintenance and passaging” value in assay [4] is on record as “dispensable”. For “Activin-A: culture supplement used with an organic matrix to replace feeder cells”, the “propagation and pluripotency marker expression (OCT4, SOX2) without feeder cells” value in assay [5] is “allowed the propagation of the cells for multiple passages while maintaining expression of pluripotency markers; also recorded: maintained expression of pluripotency markers and a morphology consistent with CTFR-bESC”.

B1: DKK1: protein inhibitor of the canonical WNT-signaling pathway, naturally secreted by the female reproductive tract (protein, UniProt O94907 32-266, looked up)
Dickkopf-related protein 1: TLNSVLNSNAIKNLPPPLGGAAGHPGSAVSAAPGILYPGGNKYQTIDNYQPYPCAEDEECGTDEYCASPTRGGDAGVQICLACRKRRKRCMRHAMCCPGNYCKNGICVSSDQNHFRGEIEETITESFGNDHSTLDGYSRRTTLSSKMYHTKGQEGSVCLRSSDCASGLCCARHFWSKICKPVLKEGQVCTKHRRKGSHGLEIFQRCYCGEGLSCRIQKDHHQASNSSRLHTCQRH
Regarding B1, the “embryo survival after transfer to recipients” value in assay [6] was “significantly improve”.
